Assay results taken from US10174037B2, “Dihydropyrazolopyrimidinone compounds as PDE2 inhibitors” (Merck Sharp & Dohme Corp., priority 2015, dated 2019).

Target: Rhesus PDE2A3 (Macaca mulatta, UniProt B3VTJ2)
Assay: PDE2 fluorescence polarization (IMAP FP) assay, rhesus PDE2A3
Format: biochemical, rhesus macaque
Conditions: Lab B, read-out: Rhesus PDE2 Ki (nM) Lab B
Description: A Labcyte Echo 555 (Labcyte, Sunnyvale, Calif.) is used to dispense 200 nL from each well of the titration plate to the 384 well assay plate. Ten microliters of a solution of enzyme (1/2000 final dilution from aliquots; sufficient to produce 20% substrate conversion) was added to the assay plate. Next 10 uL of a separate solution of the substrate FAM-labeled cAMP (50 nM final concentration product # R7506 from Molecular Devices) and the activator cGMP (1 uM final concentration), prepared in the assay buffer (10 mM Tris HCl, pH 7.2, 10 mM MgCl2, 0.05% NaN3 0.01% Tween-20, and 1 mM DTT) was added to the assay plate and shaken to mix. The reaction is allowed to proceed at room temperature for 60 minutes. A binding solution is then made from the kit components, comprised of 80% Solution A, 20% Solution B and binding reagent at a volume of 1/600 the total binding solution. The enzymatic reaction is stopped by addition of 60 μL of the binding solution to each well of the assay plates and the plates are sealed and shaken for 30 seconds. The plate was incubated at room temperature for at least one hour prior to determining the fluorescence polarization (FP). The parallel and perpendicular fluorescence of each well of the plate was measured using a Tecan Genios Pro plate reader (Tecan, Switzerland) or Perkin Elmer EnVision™ plate reader (Waltham, Mass.). Fluorescence polarization (mP) was calculated from the parallel (S) and perpendicular (P) fluorescence of each sample well and the analogous values for the median control well, containing only substrate (So and Po), using the following equation: Polarization (mP)=1000*(S/So−P/Po)/(S/So+P/Po).
Dose-inhibition profiles for each compound were characterized by fitting the mP data to a four-parameter equation given below.
An apparent (KM) for FAM-labeled cAMP of ˜10 uM was used.

Rhesus PDE2A3, sequence (B3VTJ2 1-941): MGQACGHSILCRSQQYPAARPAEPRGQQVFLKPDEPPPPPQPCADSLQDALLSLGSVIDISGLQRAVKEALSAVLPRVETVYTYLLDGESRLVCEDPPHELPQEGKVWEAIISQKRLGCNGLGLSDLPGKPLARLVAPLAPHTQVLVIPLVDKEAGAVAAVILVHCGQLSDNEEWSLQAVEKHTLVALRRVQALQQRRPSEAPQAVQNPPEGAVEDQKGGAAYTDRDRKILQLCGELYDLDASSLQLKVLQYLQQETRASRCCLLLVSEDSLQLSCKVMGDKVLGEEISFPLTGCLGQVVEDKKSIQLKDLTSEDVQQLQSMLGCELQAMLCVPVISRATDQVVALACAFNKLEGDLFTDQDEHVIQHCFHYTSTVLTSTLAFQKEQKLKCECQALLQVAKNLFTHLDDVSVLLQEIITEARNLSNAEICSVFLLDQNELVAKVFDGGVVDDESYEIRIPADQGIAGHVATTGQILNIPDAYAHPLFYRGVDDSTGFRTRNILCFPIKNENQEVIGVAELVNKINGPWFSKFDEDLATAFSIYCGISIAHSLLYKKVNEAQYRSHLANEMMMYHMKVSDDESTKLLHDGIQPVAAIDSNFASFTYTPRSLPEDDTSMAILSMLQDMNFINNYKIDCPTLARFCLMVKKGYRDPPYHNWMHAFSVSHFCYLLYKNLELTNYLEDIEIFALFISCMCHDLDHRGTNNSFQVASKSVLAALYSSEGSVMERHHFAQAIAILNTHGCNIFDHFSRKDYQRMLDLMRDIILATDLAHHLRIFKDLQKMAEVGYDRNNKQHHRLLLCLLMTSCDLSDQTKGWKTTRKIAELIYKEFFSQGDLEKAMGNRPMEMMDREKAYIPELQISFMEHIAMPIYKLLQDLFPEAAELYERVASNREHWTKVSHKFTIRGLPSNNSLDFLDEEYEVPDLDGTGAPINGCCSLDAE

Compound | Ki
CC(C)C(c1ccc(OC(F)(F)F)cc1)n1nc(CC(F)(F)F)c2c(=O)[nH]c(O)nc21 (single isomer, unassigned) [Example 232, (R)- or (S)-6-Hydroxy-1-(2-methyl-1-(4-(trifluoromethoxy)phenyl)propyl)-3-(2,2,2-trifluoroethyl)-1H-pyrazolo[3,4-d]pyrimidin-4(5H)-one] | 192 nM
CC(C)C(c1ccc(OC(F)(F)F)cc1)n1nc(CC(F)(F)F)c2c(=O)[nH]c(O)nc21 (single isomer, unassigned) [Example 233, (S)- or (R)-6-Hydroxy-1-(2-methyl-1-(4-(trifluoromethoxy)phenyl)propyl)-3-(2,2,2-trifluoroethyl)-1H-pyrazolo[3,4-d]pyrimidin-4(5H)-one] | 132 nM
CC(c1ccc(C(F)(F)F)c(F)c1)n1nc(CC(F)(F)F)c2c(=O)[nH]c(O)nc21 (single isomer, unassigned) [Example 234, (R)- or (S)-1-(1-(3-Fluoro-4-(trifluoromethyl)phenyl)ethyl)-6-hydroxy-3-(2,2,2-trifluoroethyl)-1H-pyrazolo[3,4-d]pyrimidin-4(5H)-one] | 180 nM
CC(c1ccc(C(C)(C)C)cc1)n1nc(CC(F)(F)F)c2c(=O)[nH]c(O)nc21 (single isomer, unassigned) [Example 237, (S)- or (R)-1-(1-(4-tert-Butylphenyl)ethyl)-6-hydroxy-3-(2,2,2-trifluoroethyl)-1H-pyrazolo[3,4-d]pyrimidin-4(5H)-one] | 494 nM
O=c1[nH]c(O)nc2c1c(CC(F)(F)F)nn2C(c1ccc(C(F)(F)F)c(F)c1)C1CC1 (single isomer, unassigned) [Example 239, (S)- or (R)-1-(Cyclopropyl(3-fluoro-4-(trifluoromethyl)phenyl)methyl)-6-hydroxy-3-(2,2,2-trifluoroethyl)-1H-pyrazolo[3,4-d]pyrimidin-4(5H)-one] | 166 nM
CC(C)C(c1ccc(C(F)(F)F)cc1)n1nc(CC(F)(F)F)c2c(=O)[nH]c(O)nc21 (single isomer, unassigned) [Example 241, (S)- or (R)-6-Hydroxy-1-(2-methyl-1-(4-(trifluoromethyl)phenyl)propyl)-3-(2,2,2-trifluoroethyl)-1H-pyrazolo[3,4-d]pyrimidin-4(5H)-one] | 199 nM
O=c1[nH]c(O)nc2c1c(CC(F)(F)F)nn2C(c1ccc(OC(F)(F)F)cc1)C1CC1 (single isomer, unassigned) [Example 242, (R)- or (S)-1-(Cyclopropyl(4-(trifluoromethoxy)phenyl)methyl)-6-hydroxy-3-(2,2,2-trifluoroelhyl)-1H-pyrazolo[3,4-d]pyrimidin-4(5H)-one] | 150 nM
O=c1[nH]c(O)nc2c1c(CC(F)(F)F)nn2C(c1ccc(OC(F)(F)F)cc1)C1CC1 (single isomer, unassigned) [Example 243, (S)- or (R)-1-(Cyclopropyl(4-(trifluoromethoxy)phenyl)methyl)-6-hydroxy-3-(2,2,2-trifluoroelhyl)-1H-pyrazolo[3,4-d]pyrimidin-4(5H)-one] | 191 nM
CC1(C(c2ccc(C(F)(F)F)cc2)n2nc(CC(F)(F)F)c3c(=O)[nH]c(O)nc32)CC1 (single isomer, unassigned) [Example 245, (S)- or (R)-6-Hydroxy-l-((1-methylcyclopropyl)(4-(trifluoromethyl)phenyl)methyl)-3-(2,2,2-trifluoroethyl)-1H-pyrazolo[3,4-d]pyrimidin-4(5H)-one] | 698 nM
CC(C)(C)c1ccc(C(C2CC2)n2nc(CC(F)(F)F)c3c(=O)[nH]c(O)nc32)cc1 (single isomer, unassigned) [Example 251, (S)- or (R)-1-((4-tert-Butylphenyl)(cyclopropyl)methyl)-6-hydroxy-3-(2,2,2-trifluoroethyl)-1H-pyrazolo[3,4-d]pyrimidin-4(5H)-one] | 363 nM
O=c1[nH]c(O)nc2c1c(CC(F)(F)F)nn2C(c1ccc(OC(F)(F)F)c(F)c1)C1CC1 (single isomer, unassigned) [Example 253, (S)- or (R)-1-(Cyclopropyl(3-fluoro-4-(trifluoromethoxy)phenyl)methyl)-6-hydroxy-3-(2,2,2-trifluoroethyl)-1H-pyrazolo[3,4-d]pyrimidin-4(5H)-one] | 120 nM
CC(C)C(c1ccc(C(F)(F)F)c(F)c1)n1nc(CC(F)(F)F)c2c(=O)[nH]c(O)nc21 (single isomer, unassigned) [Example 259] | 148 nM
CC(C)C(c1ccc(C(C)(C)C)cc1)n1nc(CC(F)(F)F)c2c(=O)[nH]c(O)nc21 (single isomer, unassigned) [Example 261, (S)- or (R)-1-(1-(4-tert-Butylphenyl)-2-methylpropyl)-6-hydroxy-3-(2,2,2-trifluoroethyl)-1H-pyrazolo[3,4-d]pyrimidin-4(5H)-one] | ~1400 nM
CC(C)(C)C(c1ccc(C(F)(F)F)cc1)n1nc(CC(F)(F)F)c2c(=O)[nH]c(O)nc21 (single isomer, unassigned) [Example 262, (R)- or (S)-1-(2,2-Dimethyl-1-(4-(trifluoromethyl)phenyl)propyl)-6-hydroxy-3-(2,2,2-trifluoroethyl)-1H-pyrazolo[3,4-d]pyrimidin-4(5H)-one] | 334 nM
CC(C)(C)C(c1ccc(C(F)(F)F)cc1)n1nc(CC(F)(F)F)c2c(=O)[nH]c(O)nc21 (single isomer, unassigned) [Example 263, (S)- or (R)-1-(2,2-Dimethyl-1-(4-(trifluoromethyl)phenyl)propyl)-6-hydroxy-3-(2,2,2-trifluoroethyl)-1H-pyrazolo[3,4-d]pyrimidin-4(5H)-one] | 5890 nM
CC(C)C(c1ccc(OC(F)(F)F)c(F)c1)n1nc(CC(F)(F)F)c2c(=O)[nH]c(O)nc21 (single isomer, unassigned) [Example 264, (R)- or (S)-1-(1-(3-Fluoro-4-(trifluoromethoxy)phenyl)-2-methylpropyl)-6-hydroxy-3-(2,2,2-trifluoroethyl)-1H-pyrazolo[3,4-d]pyrimidin-4(5H)-one] | 600 nM
CC(C)C(c1ccc(OC(F)(F)F)c(F)c1)n1nc(CC(F)(F)F)c2c(=O)[nH]c(O)nc21 (single isomer, unassigned) [Example 265, (S)- or (R)-1-(1-(3-Fluoro-4-(trifluoromethoxy)phenyl)-2-methylpropyl)-6-hydroxy-3-(2,2,2-trifluoroethyl)-1H-pyrazolo[3,4-d]pyrimidin-4(5H)-one] | 276 nM
CC(c1ccc(C(F)(F)F)cc1)n1nc(C(F)(F)C(F)(F)F)c2c(=O)[nH]c(O)nc21 (single isomer, unassigned) [Example 267, (S)- or (R)-6-Hydroxy-3-(perfluoroethyl)-1-(1-(4-(trifluoromethyl)phenyl)ethyl)-1H-pyrazolo[3,4-d]pyrimidin-4(5H)-one] | 448 nM
CC(c1ccc(OC(F)(F)F)cc1)n1nc(C(F)F)c2c(=O)[nH]c(O)nc21 (single isomer, unassigned) [Example 273, (R)- or (S)-3-(Difluoromethyl)-6-hydroxy-1-(1-(4-(trifluoromethoxy)phenyl)ethyl)-1H-pyrazolo[3,4-d]pyrimidin-4(5H)-one] | 113 nM
O=c1[nH]c(O)nc2c1c(C(F)F)nn2C(c1ccc(C(F)(F)F)cc1)C1CC1 (single isomer, unassigned) [Example 280, (S)- or (R)-1-(Cyclopropyl(4-(trifluoromethyl)phenyl)methyl)-3-(difluoromethyl)-6-hydroxy-1H-pyrazolo[3,4-d]pyrimidin-4(5H)-one] | 85 nM
CC(C)(C)C(c1ccc(C(F)(F)F)cc1)n1nc(C(F)F)c2c(=O)[nH]c(O)nc21 (single isomer, unassigned) [Example 283, (R)- or (S)-3-(Difluoromethyl)-1-(2,2-dimethyl-1-(4-(trifluoromethyl)phenyl)propyl)-6-hydroxy-1H-pyrazolo[3,4-d]pyrimidin-4(5H)-one] | ~1510 nM
CC(C)(C)C(c1ccc(C(F)(F)F)cc1)n1nc(C(F)F)c2c(=O)[nH]c(O)nc21 (single isomer, unassigned) [Example 284, (S)- or (R)-3-(Difluoromethyl)-1-(2,2-dimethyl-1-(4-(trifluoromethyl)phenyl)propyl)-6-hydroxy-1H-pyrazolo[3,4-d]pyrimidin-4(5H)-one] | 206 nM
CCC(c1ccc(C(F)(F)F)cc1)n1nc(C(F)F)c2c(=O)[nH]c(O)nc21 (single isomer, unassigned) [Example 285, (R)- or (S)-3-(Difluoromethyl)-6-hydroxy-1-(1-(4-(trifluoromethyl)phenyl)propyl)-1H-pyrazolo[3,4-d]pyrimidin-4(5H)-one] | 232 nM
N#CCc1nn(C(c2ccc(C(F)(F)F)cc2)C2CC2)c2nc(O)[nH]c(=O)c12 (single isomer, unassigned) [Example 297] | 207 nM
CC(c1ccc(OC(F)(F)F)c(F)c1)n1nc(CC#N)c2c(=O)[nH]c(O)nc21 (single isomer, unassigned) [Example 300, (S)- or (R)-2-(1-(1-(3-Fluoro-4-(trifluoromethoxy)phenyl)ethyl)-6-hydroxy-4-oxo-4,5-dihydro-1H-pyrazolo[3,4-d]pyrimidin-3-yl)acetonitrile] | 101 nM
